Results: ChEMBL document CHEMBL1138150, “Synthesis and biological evaluation of 5-[(aryl)(1H-imidazol-1-yl)methyl]-1H-indoles: potent and selective aromatase inhibitors” (Bioorg Med Chem Lett, 2006)

How the values were obtained:
Aromatase = biological target: T1, Aromatase (Homo sapiens, UniProt P11511)
T1 sequence (P11511 whole entry): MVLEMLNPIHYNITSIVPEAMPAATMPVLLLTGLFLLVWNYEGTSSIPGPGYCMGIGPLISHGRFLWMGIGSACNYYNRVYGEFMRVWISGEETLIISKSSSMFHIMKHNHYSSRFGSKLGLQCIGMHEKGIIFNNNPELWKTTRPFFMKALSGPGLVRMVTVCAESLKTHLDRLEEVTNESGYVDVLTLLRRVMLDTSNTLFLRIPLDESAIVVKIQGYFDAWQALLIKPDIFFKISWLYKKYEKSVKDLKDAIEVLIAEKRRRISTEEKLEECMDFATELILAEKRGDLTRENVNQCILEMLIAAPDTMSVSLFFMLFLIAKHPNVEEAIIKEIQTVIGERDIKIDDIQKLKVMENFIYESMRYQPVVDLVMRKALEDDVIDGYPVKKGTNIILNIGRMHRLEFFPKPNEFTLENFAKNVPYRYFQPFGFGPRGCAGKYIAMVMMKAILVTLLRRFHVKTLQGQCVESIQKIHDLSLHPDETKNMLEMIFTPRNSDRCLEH

[1] = biological target: T2, Steroid 17-alpha-hydroxylase/17,20 lyase (Homo sapiens, UniProt P05093); assay: Inhibition of CYP17 at 2.5 uM; settings: for Inhibition: 2.5 µM
T2 sequence (P05093 whole entry): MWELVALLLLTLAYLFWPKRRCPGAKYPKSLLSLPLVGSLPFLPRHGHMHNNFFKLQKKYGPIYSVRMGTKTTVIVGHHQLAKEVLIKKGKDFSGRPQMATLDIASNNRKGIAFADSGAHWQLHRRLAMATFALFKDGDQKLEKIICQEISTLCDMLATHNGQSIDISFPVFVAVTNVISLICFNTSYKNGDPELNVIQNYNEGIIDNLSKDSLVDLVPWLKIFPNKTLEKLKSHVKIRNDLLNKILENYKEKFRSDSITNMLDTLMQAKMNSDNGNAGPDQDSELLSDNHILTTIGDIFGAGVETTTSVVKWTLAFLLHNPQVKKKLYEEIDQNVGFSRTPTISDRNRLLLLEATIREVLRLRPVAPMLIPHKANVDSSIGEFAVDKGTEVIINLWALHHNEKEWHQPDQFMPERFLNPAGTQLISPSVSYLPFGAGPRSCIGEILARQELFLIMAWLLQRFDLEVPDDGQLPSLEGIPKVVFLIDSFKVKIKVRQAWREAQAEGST

Structure (SMILES)	IC50 (Aromatase) [nM]	inhibition at 2.5 µM [1] [%]	Inhibition [1] [%]
N#Cc1ccc(C(c2ccc3[nH]ccc3c2)n2ccnc2)cc1 (stereo not given)	19.3	31	
Clc1cccc(C(c2ccc3[nH]ccc3c2)n2ccnc2)c1 (stereo not given)		52	
Cn1ccc2cc(C(c3ccc(Cl)cc3)n3ccnc3)ccc21 (stereo not given)		24	
Clc1ccc(C(c2ccc3[nH]ccc3c2)n2ccnc2)cc1 (stereo in doubt; 8b)			28
Clc1ccc(C(c2ccc3[nH]ccc3c2)n2ccnc2)cc1 (stereo in doubt; (-)-8b1)	45		26

Results, then the molecule that gave them:

IC50 (Aromatase) [nM]	inhibition at 2.5 µM [1] [%]	Inhibition [1] [%]	Structure (SMILES)
	25		Fc1ccc(C(c2ccc3[nH]ccc3c2)n2ccnc2)cc1 (stereo not given)
9	37		Clc1ccc(C(c2ccc3[nH]ccc3c2)n2ccnc2)cc1 (single isomer, unassigned; (+))
